Measurements as given in patent publication US20260092061A1, “COMPOUNDS FOR TARGETED PROTEIN DEGRADATION” (Amphista Therapeutics Limited, priority 2022, published 2026).

Biological target: T1, BRD9 (Homo sapiens, UniProt Q9H8M2)
T1 sequence (Q9H8M2 1-597): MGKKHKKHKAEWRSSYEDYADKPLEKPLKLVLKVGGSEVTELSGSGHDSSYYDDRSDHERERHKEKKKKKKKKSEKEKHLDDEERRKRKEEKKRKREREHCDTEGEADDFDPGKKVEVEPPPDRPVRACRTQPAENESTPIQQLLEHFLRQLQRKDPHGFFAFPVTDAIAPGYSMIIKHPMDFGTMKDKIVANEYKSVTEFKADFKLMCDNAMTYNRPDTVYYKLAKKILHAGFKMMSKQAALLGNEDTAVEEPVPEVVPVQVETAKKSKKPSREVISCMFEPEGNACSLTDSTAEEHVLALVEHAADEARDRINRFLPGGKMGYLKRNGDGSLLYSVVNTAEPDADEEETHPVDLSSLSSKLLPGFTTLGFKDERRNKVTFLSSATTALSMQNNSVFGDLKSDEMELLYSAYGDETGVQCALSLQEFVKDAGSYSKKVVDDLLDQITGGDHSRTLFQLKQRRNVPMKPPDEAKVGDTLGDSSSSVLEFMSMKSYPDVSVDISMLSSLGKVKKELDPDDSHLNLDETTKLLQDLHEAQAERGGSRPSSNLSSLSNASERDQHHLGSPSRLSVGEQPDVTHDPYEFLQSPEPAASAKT
Assay: Degradation of BRD9 (IF), immunofluorescence in MV4-11 cells, 24 hours (Assay Protocol 2)
Assay type: cell-based
Parameters: A suspension of MV4-11 cells (ATCC CRL-9591) was prepared; host or cells: MV4-11
Conditions: BRD9 degradation; for DC50: Assay protocol 2, read-out: DC50; for Dmax: MV4-11, Assay protocol 2, read-out: Dmax
Summary of the method: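 % BRD9 remaining, scaled between DMSO (high) and 100 nM CFT-8634 (low) control wells, derives from mean Alexa 647 contrast in central nuclei by high-content imaging. MV4-11 cells had 24 h compound exposure at 37° C. before PFA fixation, Triton permeabilisation and anti-BRD9 E4Q3F immunostaining.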

| Compound | DC50 [nM] | Dmax [%] |
| --- | --- | --- |
| COc1cc(-c2cn(C)c(=O)c(C)c2C)cc(OC)c1CN(C)Cc1ccc2c(c1)[C@@H](C(C)C)N(C(=O)/C(C#N)=C/C(C)(C)C)CC2 (single isomer, unassigned) [Compound C89] | 10 to 25 | 40 to 70 |
| CC[C@H]1c2cccc(CN3CCN(Cc4c(OC)cc(-c5cn(C)c(=O)c(C)c5C)cc4OC)C4(CC4)C3)c2CCN1C(=O)/C(C#N)=C/C(C)(C)C (single isomer, unassigned) [Compound C90, (E/Z)-2-(5-((4-(2,6-dimethoxy-4-(1,4,5-trimethyl-6-oxo-1,6-dihydropyridin-3-yl)benzyl)-4,7-diazaspiro[2.5]octan-7-yl)methyl)-1-ethyl-1,2,3,4-tetrahydroisoquinoline-2-carbonyl)-4,4-dimethylpent-2-enenitrile] | > 1000 | 40 to 70 |
| CC[C@@H]1c2cccc(CN3CCN(Cc4c(OC)cc(-c5cn(C)c(=O)c(C)c5C)cc4OC)C4(CC4)C3)c2CCN1C(=O)/C(C#N)=C/C(C)(C)C (single isomer, unassigned) [Compound C91, (E/Z)-2-(5-((4-(2,6-dimethoxy-4-(1,4,5-trimethyl-6-oxo-1,6-dihydropyridin-3-yl)benzyl)-4,7-diazaspiro[2.5]octan-7-yl)methyl)-1-ethyl-1,2,3,4-tetrahydroisoquinoline-2-carbonyl)-4,4-dimethylpent-2-enenitrile] | < 1.25 | > 75 |
| CC[C@H]1c2cccc(CN3CCN(Cc4c(OC)cc(-c5cn(C)c(=O)c(C)c5C)cc4OC)CC34CC4)c2CCN1C(=O)/C(C#N)=C/C(C)(C)CF (single isomer, unassigned) [Compound C92, (E/Z)-2-(5-((7-(2,6-dimethoxy-4-(1,4,5-trimethyl-6-oxo-1,6-dihydropyridin-3-yl)benzyl)-4,7-diazaspiro[2.5]octan-4-yl)methyl)-1-ethyl-1,2,3,4-tetrahydroisoquinoline-2-carbonyl)-5-fluoro-4,4-dimethylpent-2-enenitrile] |  | 40 to 70 |
| CC[C@@H]1c2cccc(CN3CCN(Cc4c(OC)cc(-c5cn(C)c(=O)c(C)c5C)cc4OC)CC34CC4)c2CCN1C(=O)/C(C#N)=C/C(C)(C)CF (single isomer, unassigned) [Compound C93, (E/Z)-2-(5-((7-(2,6-dimethoxy-4-(1,4,5-trimethyl-6-oxo-1,6-dihydropyridin-3-yl)benzyl)-4,7-diazaspiro[2.5]octan-4-yl)methyl)-1-ethyl-1,2,3,4-tetrahydroisoquinoline-2-carbonyl)-5-fluoro-4,4-dimethylpent-2-enenitrile] | < 1.25 | > 75 |

Next, values leading:

| DC50 [nM] | Dmax [%] | Compound |
| --- | --- | --- |
| < 1.25 | > 75 | CCC1c2cccc(CN3CCN(Cc4c(OC)cc(-c5cn(C)c(=O)c(C)c5C)cc4OC)CC34CC4)c2CCN1C(=O)/C(C#N)=C/C(C)(C)C (single isomer, unassigned) [Compound C94, (E/Z)-2-(5-((7-(2,6-dimethoxy-4-(1,4,5-trimethyl-6-oxo-1,6-dihydropyridin-3-yl)benzyl)-4,7-diazaspiro[2.5]octan-4-yl)methyl)-1-ethyl-1,2,3,4-tetrahydroisoquinoline-2-carbonyl)-4,4-dimethylpent-2-enenitrile] |
| 1.25 to 10 | > 75 | COc1cc(-c2cn(C)c(=O)c(C)c2C)cc(OC)c1CN1CCN(Cc2ccc3c(c2)[C@H](C(C)C)N(C(=O)/C(C#N)=C/C(C)(C)CF)CC3)C2(CC2)C1 (single isomer, unassigned) [Compound C96, (E/Z)-2-(7-((7-(2,6-dimethoxy-4-(1,4,5-trimethyl-6-oxo-1,6-dihydropyridin-3-yl)benzyl)-4,7-diazaspiro[2.5]octan-4-yl)methyl)-1-isopropyl-1,2,3,4-tetrahydroisoquinoline-2-carbonyl)-5-fluoro 4,4-dimethylpent-2-enenitrile] |
| 10 to 25 | 70 to 75 | COc1cc(-c2cn(C)c(=O)c(C)c2C)cc(OC)c1CN1CCN(Cc2ccc3c(c2)[C@@H](C(C)C)N(C(=O)/C(C#N)=C/C(C)(C)CF)CC3)C2(CC2)C1 (single isomer, unassigned) [Compound C97, (E/Z)-2-(7-((7-(2,6-dimethoxy-4-(1,4,5-trimethyl-6-oxo-1,6-dihydropyridin-3-yl)benzyl)-4,7-diazaspiro[2.5]octan-4-yl)methyl)-1-isopropyl-1,2,3,4-tetrahydroisoquinoline-2-carbonyl)-5-fluoro 4,4-dimethylpent-2-enenitrile] |
| < 1.25 | > 75 | COc1cc(-c2cn(C)c(=O)c(C)c2C)cc(OC)c1CN1CCN(Cc2cccc3c2CCN(C(=O)/C(C#N)=C/C(C)(C)C)[C@H]3C2CC2)C2(CC2)C1 (single isomer, unassigned) [Compound C99, (E/Z)-2-(1-cyclopropyl-5-((7-(2,6-dimethoxy-4-(1,4,5-trimethyl-6-oxo-1,6-dihydropyridin-3-yl)benzyl)-4,7-diazaspiro[2.5]octan-4-yl)methyl)-1,2,3,4-tetrahydroisoquinoline-2-carbonyl)-4,4-dimethylpent-2-enenitrile] |
| < 1.25 | > 75 | CCC[C@H]1c2cccc(CN3CCN(Cc4c(OC)cc(-c5cn(C)c(=O)c(C)c5C)cc4OC)CC34CC4)c2CCN1C(=O)/C(C#N)=C/C(C)(C)C (single isomer, unassigned) [Compound C100, (E/Z)-2-(5-((7-(2,6-dimethoxy-4-(1,4,5-trimethyl-6-oxo-1,6-dihydropyridin-3-yl)benzyl)-4,7-diazaspiro[2.5]octan-4-yl)methyl)-1-propyl-1,2,3,4-tetrahydroisoquinoline-2-carbonyl)-4,4-dimethylpent-2-enenitrile] |
| 25 to 1000 | 40 to 70 | CCC[C@@H]1c2cccc(CN3CCN(Cc4c(OC)cc(-c5cn(C)c(=O)c(C)c5C)cc4OC)CC34CC4)c2CCN1C(=O)/C(C#N)=C/C(C)(C)C (single isomer, unassigned) [Compound C101, (E/Z)-2-(5-((7-(2,6-dimethoxy-4-(1,4,5-trimethyl-6-oxo-1,6-dihydropyridin-3-yl)benzyl)-4,7-diazaspiro[2.5]octan-4-yl)methyl)-1-propyl-1,2,3,4-tetrahydroisoquinoline-2-carbonyl)-4,4-dimethylpent-2-enenitrile] |
| 25 to 1000 | 40 to 70 | COc1cc(-c2cn(C)c(=O)c(C)c2C)cc(OC)c1CN1CCN(Cc2cccc3c2CCN(C(=O)/C(C#N)=C/C(C)(C)CF)C3C(C)C)CC12CC2 (single isomer, unassigned) [Compound C102, (E/Z)-2-(5-((4-(2,6-dimethoxy-4-(1,4,5-trimethyl-6-oxo-1,6-dihydropyridin-3-yl)benzyl)-4,7-diazaspiro[2.5]octan-7-yl)methyl)-1-isopropyl-1,2,3,4-tetrahydroisoquinoline-2-carbonyl)-5-fluoro-4,4-dimethylpent-2-enenitrile] |
| < 1.25 | > 75 | COc1cc(-c2cn(C)c(=O)c(C)c2C)cc(OC)c1CN1CCN(Cc2cccc3c2CCN(C(=O)/C(C#N)=C/C(C)(C)CF)[C@@H]3C(C)C)CC12CC2 (single isomer, unassigned) [Compound C103, (E/Z)-2-(5-((4-(2,6-dimethoxy-4-(1,4,5-trimethyl-6-oxo-1,6-dihydropyridin-3-yl)benzyl)-4,7-diazaspiro[2.5]octan-7-yl)methyl)-1-isopropyl-1,2,3,4-tetrahydroisoquinoline-2-carbonyl)-5-fluoro-4,4-dimethylpent-2-enenitrile] |
